# Measured values published in paper PMC12751141, “Disrupting α-Synuclein–ClpP interaction restores mitochondrial function and attenuates neuropathology in Parkinson’s disease models” (Molecular Neurodegeneration, 2025).
# pKd: −log10 of the molar value.
# Key:
# FITC-αSyn (human) = FITC-αSyn (human) (UniProt P37840); experiment: MST
# [1] = molecular target: human recombinant αSyn pre-formed fibrils (PFF) (Type 1) (human); experiment: MST
# [2] = system: αSyn PFF-seeded aggregation; experiment: αSyn ThT assay, PFF-seeded aggregation with recombinant ClpP; assay type: biochemical, human; conditions: ClpP 5/10 µM; αSyn PFF 1 µM; ThT 1 µM; PBS pH 7.4, 37 °C, 500 rpm, up to 48 h; ex 450 nm / em 485 nm; n = 4
# Protocol: αSyn monomer (5µM) and PFF (1µM) were incubated with recombinant ClpP (5/10µM) and Thioflavin T (ThT) (1µM) in 100 µl PBS (pH 7.4) at 37 °C in a shaking incubator (500 rpm). ThT fluorescence was measured (excitation 450 nm, emission 485 nm) every 15 min up to 48 h.
# Fig. 1 ClpP modulates αSyn tetramer and aggregates. […] (B) Western blot and quantification of αSyn tetramer/monomer ratio and oligomer/monomer ratio, upon intact cell DSG-crosslinking, in HEK293T cells overexpressing Myc-tagged WT αSyn with EV or Flag-tagged S153A-ClpP (n = 4–5, two-tailed Student’s t test). (C) Fluorescent images and quantification of αSyn aggregation in SH-SY5Y cells overexpressing EV or ClpP with vectors expressing Venus-N-αSyn (VN) and αSyn-C-Venus (VC) (n = 7, two-tailed Student’s t test, Scale bar = 10 μm). (D) Fluorescent images and quantification of αSyn aggregation in control knock-down (Consh) or ClpP knock-down (ClpPsh) SH-SY5Y cells overexpressing VN and VC (n = 4, two-tailed Student’s t test, Scale bar = 10 μm). (E) In vitro αSyn PFF (1µM) – seeded aggregation in the absence (control) or presence of ClpP (5/10µM) was monitored by thioflavin T (ThT) fluorescence (n = 4, two-tailed Student’s t test). […]
# [3] = system: αSyn oligomerization (VN/VC-αSyn), SH-SY5Y cells; experiment: BiFC split-Venus αSyn oligomerization in SH-SY5Y cells; assay type: cell-based
# Text: (§1) To construct truncated-αSyn plasmids, pcDNA3.1(-) was digested with BsteII and XbaI, and ΔN-, ΔC- and ΔNAC-αSyn was PCR-amplified using self-designed primers and inserted into the plasmid backbone. Cells were transfected with TransIT-2020 (Mirus Bio, LLC) following the manufacturer’s protocol.
# (§2) The bimolecular fluorescence was examined 24-hour after transfection (n = 3, one-way ANOVA with Tukey’s post-hoc test, scale bar = 30 μm). (D) Quantification of the concentration (ng/ml) of extracellular αSyn monomer and oligomer, and intracellular αSyn oligomer in Tet-inducible SH-SY5Y cells that were pre-treated with TAT or CS2 peptide 30-minute before adding doxycycline (Dox) to induce αSyn expression. The concentration of αSyn species was determined by ELISA (n = 4, one-way ANOVA with Tukey’s post-hoc test; data are mean ± SEM). (E) Representative images of Mito-SOX staining in SH-SY5Y cells that were pre-treated with TAT or CS2 peptide and transfected with split Venus-αSyn vectors. Mitochondrial ROS production was determined by Mito-SOX staining after 24-hour transfection (n = 4, two-tailed Student’s t test, scale bar = 30 μm).
# The bimolecular fluorescence was examined 24-hour after the transfection and quantitated (n = 14 areas/group, one-way ANOVA with Tukey’s post-hoc test, data are mean ± SEM).
# ClpP–αSyn interaction = experiment: Co-immunoprecipitation of ClpP with αSyn constructs in HEK293T cell lysates; assay type: cell-based
# Protocol: as §1, with “Myc-tagged WT- and A53T- αSyn, Myc-tagged ClpP, and Flag-tagged WT- and S153A- ClpP plasmids were self-constructed as previously described (Ref). To” for “To”
# (§3) Cells or tissues were lysed in total lysis buffer (50mM Tris-HCl, pH 7.5, 150mM NaCl, 1% Triton X-100, and protease inhibitor). Total protein lysates (800 µg) were incubated with the indicated antibodies overnight at 4 °C followed by the addition of protein A/G beads (sc-2003, Santa Cruz) for 2 h at 4 °C. Various recombinant αSyn and Clpp (500 ng) were incubated in in vitro interaction buffer (20mM Tris-HCl pH 7.5, 100mM KCl, 2mM MgCl2 and 0.1% Triton-X100) for 30 min at room temperature, and then incubated with indicated antibodies overnight at 4 °C followed by the addition of protein A/G beads for 2 h at 4 °C. The beads with immuno-precipitates were pulled down at 4000 g and washed four times with total lysis buffer/in vitro interaction buffer in the presence of 0.1% Triton X-100 and were analyzed by western blot analysis.
# Shown are representative blots of 3 independent experiments. Quantification of the ratio of αSyn over ClpP (pull-down) (n = 4, two-tailed Student’s t test, data are mean ± SEM).
# ClpP (SH-SY5Y cells) = experiment: ClpP protein level, western blot, SH-SY5Y cells; assay type: cell-based; conditions: WT or A53T αSyn overexpression; 30 min pretreatment; n = 4–5 (CS1: n = 4)
# SH-SY5Y cells = experiment: Mitochondrial ROS (Mito-SOX) in SH-SY5Y cells; assay type: cell-based; conditions: SH-SY5Y expressing VN/VC-αSyn (CS1: WT αSyn); Mito-SOX 5 µM; vs TAT
# Protocol: Cells cultured on coverslips or 24-well plates were washed with DPBS and then incubated with 5 µM Mito-SOX™ Red (Invitrogen, M36008), a mitochondrial superoxide indicator, for 10 min at 37 °C. For cells cultured on coverslips, the images were visualized by microscope, and quantification of images was then carried out using NIH ImageJ software. At least 100 cells per group were counted in the analysis.
# as §2
# ClpP (HEK293T cells) = experiment: ClpP protein level, western blot, HEK293T cells; assay type: cell-based; conditions: WT or A53T αSyn overexpression; 30 min pretreatment; n = 4–5 (CS1: n = 4)
# αSyn–ClpP binding = experiment: Immunoprecipitation of recombinant ClpP and αSyn in vitro; set-up: species or system human; conditions: recombinant ClpP pre-incubated with peptide 30 min before αSyn; anti-ClpP IP; 3 independent experiments
# Protocol: The human recombinant WT- (#S-1001-2), A53T- (#S-1001-2), ΔNAC- (#S-1015-1) and ΔC- (#S-1012-1) αSyn and FITC-αSyn (S-1113-2) were purchased from rPeptide. The human recombinant αSyn pre-formed fibrils (PFF) (Type 1) (SPR-322) and ATTO-594-PFF (SPR-322B-A594) were purchased from StressMarq Biosciences (Bioactivity has been widely validated via various approaches, e.g. TEM, ThT).
# as §3
substance,measurement,setting,value
Decoy peptide CS2 (TAT-C6-GGVVTA) (from UniProt P04608 47-57),pKd,FITC-αSyn (human),5.15
same,pKd,[1],5.40
recombinant ClpP protein: human recombinant ClpP obtained from Dr. Aaron Schimmer,PFF-ThT fluorescence,[2],dose-dependent suppression of PFF-ThT fluorescence intensity
"TAT-C6-GAVVTG [CS1, decoy peptide]",BiFC signal / αSyn oligomerization,"[3]; SH-SY5Y expressing VN/VC-αSyn, 24-hour after transfection","failed to restore ClpP expression (Fig. S4A and B), reduce αSyn oligomerization"
same,"αSyn aggregation, discussion summary",[3]; in vitro or in vivo,"no effect, either in vitro or in vivo"
same,ClpP binding to ΔC-αSyn,"ClpP–αSyn interaction; HEK293T lysates, Flag-ClpP + Myc-ΔC-αSyn","not CS1, abolished the binding"
same,ClpP binding to ΔN-αSyn,"ClpP–αSyn interaction; HEK293T lysates, Flag-ClpP + Myc-ΔN-αSyn","not CS1, abolished the binding"
same,ClpP binding to WT-αSyn,"ClpP–αSyn interaction; HEK293T lysates, WT αSyn, CS2: 24-hour treatment","not CS1, abolished the binding"
same,"αSyn-ClpP interaction, discussion summary",ClpP–αSyn interaction; in vitro or in vivo,"no effect, either in vitro or in vivo"
same,"ClpP protein level, SH-SY5Y",ClpP (SH-SY5Y cells),failed to restore ClpP expression
same,mitochondrial ROS (Mito-SOX intensity),SH-SY5Y cells,"failed to restore ClpP expression (Fig. S4A and B), reduce αSyn oligomerization (Fig. S4C), or suppress ROS"
same,"ClpP protein level, HEK293T",ClpP (HEK293T cells),failed to restore ClpP expression
same,"αSyn–ClpP binding, recombinant",αSyn–ClpP binding,no effect
